Experimental data taken from ChEMBL document CHEMBL1132978, “Artificial neural network applied to prediction of fluorquinolone antibacterial activity by topological methods” (2000).
Converted amounts (≈) assume the structure as drawn.

system: Escherichia coli; assay: Minimum inhibitory concentration against Escherichia coli; type: functional

Structure (SMILES) | MIC
CCN1CCN(c2cc3c(cc2F)c(=O)c(C(=O)O)cn3C2CCC2)CC1 | 0.8 µg/mL (≈ 2.14 µM)
NCC1CCCN(c2c(F)c(N)c3c(=O)c(C(=O)O)cn(C4CC4)c3c2F)C1 (stereo unspecified) | 0.05 µg/mL (≈ 0.127 µM)
CN1CCN(c2cc3c(cc2F)c(=O)c(C(=O)O)cn3-c2ccc(F)cc2F)CC1 | 0.2 µg/mL (≈ 0.479 µM)
CCOc1c(N2CCCC(N)C2)c(F)cc2c(=O)c(C(=O)O)cn(C3CC3)c12 (stereo unspecified) | 0.2 µg/mL (≈ 0.514 µM)
CCn1cc(C(=O)O)c(=O)c2cc(F)c(N3CCNCC3)cc21 [NORFLOXACIN] | 0.1 µg/mL (≈ 0.313 µM)
COc1c(N2CCC(N)CC2)c(F)c(N)c2c(=O)c(C(=O)O)cn(C3CC3)c12 | 0.1 µg/mL (≈ 0.256 µM)
NC1CCN(c2c(F)cc3c(=O)c(C(=O)O)cn(C4CC4)c3c2C(F)(F)F)C1 (stereo unspecified) | 0.1 µg/mL (≈ 0.25 µM)
COc1c(N2CCN(C)CC2)c(F)cc2c(=O)c(C(=O)O)cn(C3CC3)c12 | 0.1 µg/mL (≈ 0.266 µM)
CCNCC1CCN(c2nc3c(cc2F)c(=O)c(C(=O)O)cn3C2CC2)C1 (stereo unspecified) | 0.1 µg/mL (≈ 0.267 µM)
O=C(O)c1cn(-c2ccc(F)cc2F)c2cc(N3CCNCC3)c(F)cc2c1=O | 0.1 µg/mL (≈ 0.248 µM)
CC1CN(c2cc3c(cc2F)c(=O)c(C(=O)O)cn3C(C)(C)C)CCN1 (stereo unspecified) | 0.1 µg/mL (≈ 0.277 µM)
CCOc1c(N2CCC(C)(CN)C2)c(F)cc2c(=O)c(C(=O)O)cn(C3CC3)c12 (stereo unspecified) | 0.2 µg/mL (≈ 0.496 µM)
CCOc1c(N2CCC(C)(CN)C2)c(F)c(N)c2c(=O)c(C(=O)O)cn(C3CC3)c12 (stereo unspecified) | 0.2 µg/mL (≈ 0.478 µM)
CC(C)(C)n1cc(C(=O)O)c(=O)c2cc(F)c(N3CCNCC3)cc21 | 0.2 µg/mL (≈ 0.576 µM)
CCNCC1CCN(c2c(F)cc3c(=O)c(C(=O)O)cn(C4CC4)c3c2F)C1 (stereo unspecified) [PD-117558] | 0.05 µg/mL (≈ 0.128 µM)
NCC1CCN(c2nc3c(cc2F)c(=O)c(C(=O)O)cn3-c2ccc(F)cc2F)C1 (stereo unspecified) | 0.05 µg/mL (≈ 0.12 µM)
CC1(CN)CCN(c2cc3c(cc2F)c(=O)c(C(=O)O)cn3C2CC2)C1 (stereo unspecified) | 0.1 µg/mL (≈ 0.278 µM)
CC(C)(C)n1cc(C(=O)O)c(=O)c2cc(F)c(N3CCC(N)C3)cc21 (stereo unspecified) | 0.2 µg/mL (≈ 0.576 µM)
COc1c(N2CCNCC2)c(F)cc2c(=O)c(C(=O)O)cn(C3CC3)c12 | 0.05 µg/mL (≈ 0.138 µM)
CC1CN(c2cc3c(cc2F)c(=O)c(C(=O)O)cn3-c2ccc(F)cc2F)CCN1 (stereo unspecified) [TEMAFLOXACIN] | 0.1 µg/mL (≈ 0.24 µM)
CCn1cc(C(=O)O)c(=O)c2cc(F)c(N3CCC(N)C3)cc21 (stereo unspecified) | 0.4 µg/mL (≈ 1.25 µM)
COc1c(N2CCCC(CN)C2)c(F)cc2c(=O)c(C(=O)O)cn(C3CC3)c12 (stereo unspecified) | 0.2 µg/mL (≈ 0.514 µM)
COc1c(N2CCC(C)(CN)C2)c(F)c(N)c2c(=O)c(C(=O)O)cn(C3CC3)c12 (stereo unspecified) | 0.1 µg/mL (≈ 0.247 µM)
COc1c(N2CCC(CN)C2)c(F)cc2c(=O)c(C(=O)O)cn(C3CC3)c12 (stereo unspecified) | 0.05 µg/mL (≈ 0.133 µM)
CCN1CCN(c2cc3c(cc2F)c(=O)c(C(=O)O)cn3C2CC2)CC1 [ENROFLOXACIN] | 0.05 µg/mL (≈ 0.139 µM)
Nc1c(F)c(N2CCC(N)C2)cc2c1c(=O)c(C(=O)O)cn2C1CC1 (stereo unspecified) | 0.013 µg/mL (≈ 0.0375 µM)

Structure (SMILES) | MIC
CC1CN(c2cc3c(cc2F)c(=O)c(C(=O)O)cn3C(C)(C)C)CC(C)N1 (stereo unspecified) | 0.2 µg/mL (≈ 0.533 µM)
CCn1cc(C(=O)O)c(=O)c2cc(F)c(N3CCC(N)C3)c(F)c21 (stereo unspecified) | 0.05 µg/mL (≈ 0.148 µM)
CNC(C)C1CCN(c2cc3c(c(N)c2F)c(=O)c(C(=O)O)cn3C2CC2)C1 (stereo unspecified) | 0.1 µg/mL (≈ 0.257 µM)
CCOc1c(N2CCC(N)C2)c(F)c(N)c2c(=O)c(C(=O)O)cn(C3CC3)c12 (stereo unspecified) | 0.05 µg/mL (≈ 0.128 µM)
CC1CN(c2cc3c(cc2F)c(=O)c(C(=O)O)cn3C(C)C)CCN1 (stereo unspecified) | 0.8 µg/mL (≈ 2.3 µM)
COc1c(N2CCCC(N)C2)c(F)c(N)c2c(=O)c(C(=O)O)cn(C3CC3)c12 (stereo unspecified) | 0.1 µg/mL (≈ 0.256 µM)
CC(C)n1cc(C(=O)O)c(=O)c2cc(F)c(N3CCC(N)C3)cc21 (stereo unspecified) | 0.8 µg/mL (≈ 2.4 µM)
CC(N)C1CCN(c2cc3c(c(N)c2F)c(=O)c(C(=O)O)cn3C2CC2)C1 (stereo unspecified) | 0.025 µg/mL (≈ 0.0668 µM)
NCC1CCN(c2nc3c(cc2F)c(=O)c(C(=O)O)cn3C2CC2)C1 (stereo unspecified) | 0.05 µg/mL (≈ 0.144 µM)
NC1CCN(c2c(F)cc3c(=O)c(C(=O)O)cn(C4CC4)c3c2Cl)C1 (stereo unspecified) [CLINAFLOXACIN] | 0.013 µg/mL (≈ 0.0355 µM)
COc1c(N2CCC(N)C2)c(F)c(N)c2c(=O)c(C(=O)O)cn(C3CC3)c12 (stereo unspecified) | 0.025 µg/mL (≈ 0.0664 µM)
CCN1CCN(c2cc3c(cc2F)c(=O)c(C(=O)O)cn3CC)CC1 | 0.1 µg/mL (≈ 0.288 µM)
CCOc1c(N2CCCC(N)C2)c(F)c(N)c2c(=O)c(C(=O)O)cn(C3CC3)c12 (stereo unspecified) | 0.2 µg/mL (≈ 0.495 µM)
CCNCC1CCN(c2cc3c(cc2F)c(=O)c(C(=O)O)cn3-c2ccc(F)cc2F)C1 (stereo unspecified) | 0.4 µg/mL (≈ 0.898 µM)
CC(C)N1CCN(c2cc3c(cc2F)c(=O)c(C(=O)O)cn3-c2ccc(F)cc2F)CC1 | 0.8 µg/mL (≈ 1.8 µM)
CC1CN(c2cc3c(cc2F)c(=O)c(C(=O)O)cn3C2CCC2)CC(C)N1 (stereo unspecified) | 0.4 µg/mL (≈ 1.07 µM)
COc1c(N2CC(C)NC(C)C2)c(F)cc2c(=O)c(C(=O)O)cn(C3CC3)c12 (stereo unspecified) | 0.1 µg/mL (≈ 0.257 µM)
CC1CN(c2cc3c(cc2F)c(=O)c(C(=O)O)cn3C(C)C)CC(C)N1 (stereo unspecified) | 1.6 µg/mL (≈ 4.43 µM)
COc1c(N2CCC(C)(CN)C2)c(F)cc2c(=O)c(C(=O)O)cn(C3CC3)c12 (stereo unspecified) | 0.1 µg/mL (≈ 0.257 µM)
CC(C)N1CCN(c2cc3c(cc2F)c(=O)c(C(=O)O)cn3C2CC2)CC1 | 0.1 µg/mL (≈ 0.268 µM)
Nc1c(F)c(N2CCC(N)C2)c(F)c2c1c(=O)c(C(=O)O)cn2C1CC1 (stereo unspecified) | 0.006 µg/mL (≈ 0.0165 µM)
CCOc1c(N2CCCC(CN)C2)c(F)cc2c(=O)c(C(=O)O)cn(C3CC3)c12 (stereo unspecified) | 0.2 µg/mL (≈ 0.496 µM)
NC1CCN(c2cc3c(cc2F)c(=O)c(C(=O)O)cn3C2CC2)C1 (stereo unspecified) | 0.05 µg/mL (≈ 0.151 µM)
CCN1CCN(c2cc3c(cc2F)c(=O)c(C(=O)O)cn3C(C)(C)C)CC1 | 0.2 µg/mL (≈ 0.533 µM)
CC(C)CN1CCN(c2cc3c(cc2F)c(=O)c(C(=O)O)cn3-c2ccc(F)cc2F)CC1 | 3.1 µg/mL (≈ 6.75 µM)
